Experimental data published in ChEMBL document CHEMBL1201862, “PubChem BioAssay data set” (2004).
The source made the active and inactive calls.

Columns and labels:
[1] = cytotoxicity in HEK-293T cells, dose response, cytotoxicity control for TCR NF-kB inhibitor project, luminescence, T-cell screen hits (AID 489026); format: functional, cell-based;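 note: cells exposed to compound about 14 hours before the viability readout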
SUMO-activating enzyme [2] = molecular target: T1, SUMO-activating enzyme (Homo sapiens, UniProt Q9UBT2); test: SUMOylation inhibitor hit validation, confirmation, SUMOylation inhibitor project, biochemical, AlphaScreen (AID 2018); format: functional
Genome polyprotein = Genome polyprotein (dengue virus type 2, UniProt P29990); test: Dengue-2 NS5 methyltransferase inhibitors, primary screen, biochemical, confirmation dose response (AID 588689); format: functional
[3] = molecular target: Induced myeloid leukemia cell differentiation protein Mcl-1 (Homo sapiens, UniProt Q07820); format: functional
SUMO-activating enzyme [4] = molecular target: T1, SUMO-activating enzyme; test: inhibitors of in vitro SUMOylation cascade, primary screen, biochemical, HTRF, uHTS (AID 2006); format: protein-complex assay
[5] = molecular target: T2, RNA-binding protein pos-1 (Caenorhabditis elegans, UniProt G5EF15); test: inhibitors of POS-1/mex-3 RNA binding, dose response, biochemical, fluorescence polarization (AID 1964);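 note: purified POS-1 fused to maltose binding protein made in E. coli; potency of compounds blocking POS-1 binding to fluorescent RNA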
T2 sequence (G5EF15 whole entry): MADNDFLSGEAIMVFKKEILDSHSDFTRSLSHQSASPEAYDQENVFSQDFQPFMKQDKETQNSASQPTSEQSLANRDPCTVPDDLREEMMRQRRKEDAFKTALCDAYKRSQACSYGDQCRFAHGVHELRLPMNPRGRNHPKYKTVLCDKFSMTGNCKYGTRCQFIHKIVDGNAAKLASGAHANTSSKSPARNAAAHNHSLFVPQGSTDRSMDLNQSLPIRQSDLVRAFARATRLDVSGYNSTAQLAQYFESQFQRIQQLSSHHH

[6] = molecular target: Eukaryotic translation initiation factor 4E (Mus musculus, UniProt P63073); test: eIF4E–eIF4G protein interaction inhibitors, dose response, biochemical, TR-FRET (AID 855); format: functional;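 note: potency for disrupting eIF4E binding to eIF4GI seen as loss of FRET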
[7] = molecular target: T3, Zinc finger protein mex-5 (Caenorhabditis elegans, UniProt Q9XUB2); test: MEX-5/TCR-2 RNA interaction inhibitors, dose response, biochemical, C. elegans, fluorescence polarization (AID 1960)
T3 sequence (Q9XUB2 whole entry): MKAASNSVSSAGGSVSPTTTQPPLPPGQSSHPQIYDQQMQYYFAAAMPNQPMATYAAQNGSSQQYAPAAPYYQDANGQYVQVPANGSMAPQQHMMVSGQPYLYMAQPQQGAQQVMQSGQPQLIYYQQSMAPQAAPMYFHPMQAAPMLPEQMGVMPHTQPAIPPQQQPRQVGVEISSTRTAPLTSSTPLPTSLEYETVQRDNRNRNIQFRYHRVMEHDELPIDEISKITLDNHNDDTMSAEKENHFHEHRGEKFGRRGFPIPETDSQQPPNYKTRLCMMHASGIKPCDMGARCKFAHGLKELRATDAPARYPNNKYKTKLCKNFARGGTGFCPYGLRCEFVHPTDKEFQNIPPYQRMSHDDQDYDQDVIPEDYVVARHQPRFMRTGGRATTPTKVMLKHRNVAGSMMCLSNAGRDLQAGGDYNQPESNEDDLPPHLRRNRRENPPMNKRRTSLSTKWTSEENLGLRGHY

[8] = molecular target: T4, Calpain-2 catalytic subunit (Sus scrofa, UniProt P43367); test: pig calpain II inhibitor potency, dose response, biochemical, fluorogenic peptide substrate (AID 1420); format: functional
T4 sequence (P43367 whole entry): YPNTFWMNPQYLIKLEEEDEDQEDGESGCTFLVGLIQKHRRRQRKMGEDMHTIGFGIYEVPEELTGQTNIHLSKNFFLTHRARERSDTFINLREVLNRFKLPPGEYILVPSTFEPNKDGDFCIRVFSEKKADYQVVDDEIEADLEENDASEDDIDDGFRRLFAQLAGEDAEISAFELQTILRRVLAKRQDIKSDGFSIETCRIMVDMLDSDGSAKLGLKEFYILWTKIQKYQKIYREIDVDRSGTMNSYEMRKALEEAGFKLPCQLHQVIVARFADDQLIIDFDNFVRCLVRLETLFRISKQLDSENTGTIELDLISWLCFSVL

[9] = Luminescence Cell-Based Dose Response HTS to Identify Inhibitors of 5'UTR Stem-Loop Driven Prion Protein mRNA Translation in H4 Neuroglioblastoma Cells. [Related pubchem assays: 1827 (Project Summary), 1813 (Primary HTS)]; format: functional
[10] = inhibitors of firefly luciferase expression or activity, dose response, H4 neuroglioma cells, luminescence (AID 1990); format: functional, cell-based
[11] = inhibitors of SNCA 5'UTR-driven reporter translation, confirmation, H4 neuroglioma cells, luminescence (AID 1988); format: functional, cell-based
[12] = molecular target: T5, Microphthalmia-associated transcription factor (Homo sapiens, UniProt O75030); test: TRPM1 promoter luciferase signal decrease, dose response, MITF inhibitor project, cell-based, SK-MEL-5, cherry-picked, set 3 (AID 493073); format: functional
T5 sequence (O75030 whole entry): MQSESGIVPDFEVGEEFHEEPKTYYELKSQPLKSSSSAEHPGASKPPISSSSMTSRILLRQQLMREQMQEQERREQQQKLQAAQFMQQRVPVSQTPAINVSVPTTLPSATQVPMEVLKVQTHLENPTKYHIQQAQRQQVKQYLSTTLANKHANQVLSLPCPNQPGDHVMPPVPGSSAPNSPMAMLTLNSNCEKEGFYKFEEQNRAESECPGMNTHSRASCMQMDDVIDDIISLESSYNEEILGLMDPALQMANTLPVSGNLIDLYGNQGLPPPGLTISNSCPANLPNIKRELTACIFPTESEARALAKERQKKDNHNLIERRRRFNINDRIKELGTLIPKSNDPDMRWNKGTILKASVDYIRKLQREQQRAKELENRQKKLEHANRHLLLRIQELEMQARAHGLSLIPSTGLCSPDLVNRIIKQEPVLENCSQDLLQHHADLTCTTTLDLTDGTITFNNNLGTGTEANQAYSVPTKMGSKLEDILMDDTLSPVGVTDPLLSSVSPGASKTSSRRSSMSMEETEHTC

[13] = C. albicans growth with fluconazole, confirmation, fluorescence, retest (AID 2467); format: functional, cell-based
[14] = NIH-3T3 fibroblast cytotoxicity, dose response, cytotoxicity control, cell-based, fluorescence, Alamar Blue, secondary assay (AID 2327); format: functional;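 note: NIH-3T3 mouse fibroblasts cultured with fluconazole at 8 µg/mL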
Leucine aminopeptidase = molecular target: T6, Leucine aminopeptidase (Plasmodium falciparum 3D7, UniProt Q8IL11); test: P. falciparum M17LAP inhibitors, primary screen, biochemical, fluorogenic H-Leu-NHMec substrate, 1536-well (AID 1619); format: functional
T6 sequence (Q8IL11 whole entry): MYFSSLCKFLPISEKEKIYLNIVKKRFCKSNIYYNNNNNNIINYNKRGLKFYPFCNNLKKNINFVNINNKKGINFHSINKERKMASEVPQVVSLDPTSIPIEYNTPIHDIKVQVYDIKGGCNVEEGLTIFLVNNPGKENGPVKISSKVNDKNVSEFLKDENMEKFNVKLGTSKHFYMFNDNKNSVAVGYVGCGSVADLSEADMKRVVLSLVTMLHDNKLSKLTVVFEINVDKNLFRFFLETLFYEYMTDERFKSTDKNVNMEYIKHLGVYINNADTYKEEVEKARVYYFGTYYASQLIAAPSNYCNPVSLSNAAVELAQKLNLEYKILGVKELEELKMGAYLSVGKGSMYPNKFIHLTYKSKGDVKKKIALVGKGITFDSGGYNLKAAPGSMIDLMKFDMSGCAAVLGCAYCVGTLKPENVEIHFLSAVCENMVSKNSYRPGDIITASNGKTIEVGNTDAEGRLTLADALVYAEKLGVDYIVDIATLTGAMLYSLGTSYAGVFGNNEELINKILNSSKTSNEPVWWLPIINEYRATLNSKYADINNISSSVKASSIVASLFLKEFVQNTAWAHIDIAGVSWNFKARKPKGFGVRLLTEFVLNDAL

[15] = molecular target: T7, Rac GTPase-activating protein 1 (Homo sapiens, UniProt Q9H0H5); test: MgcRacGAP GTPase-activating activity inhibitors, confirmation, biochemical, ADP Hunter fluorescence, primary and confirmatory (AID 624330); format: functional
T7 sequence (Q9H0H5 whole entry): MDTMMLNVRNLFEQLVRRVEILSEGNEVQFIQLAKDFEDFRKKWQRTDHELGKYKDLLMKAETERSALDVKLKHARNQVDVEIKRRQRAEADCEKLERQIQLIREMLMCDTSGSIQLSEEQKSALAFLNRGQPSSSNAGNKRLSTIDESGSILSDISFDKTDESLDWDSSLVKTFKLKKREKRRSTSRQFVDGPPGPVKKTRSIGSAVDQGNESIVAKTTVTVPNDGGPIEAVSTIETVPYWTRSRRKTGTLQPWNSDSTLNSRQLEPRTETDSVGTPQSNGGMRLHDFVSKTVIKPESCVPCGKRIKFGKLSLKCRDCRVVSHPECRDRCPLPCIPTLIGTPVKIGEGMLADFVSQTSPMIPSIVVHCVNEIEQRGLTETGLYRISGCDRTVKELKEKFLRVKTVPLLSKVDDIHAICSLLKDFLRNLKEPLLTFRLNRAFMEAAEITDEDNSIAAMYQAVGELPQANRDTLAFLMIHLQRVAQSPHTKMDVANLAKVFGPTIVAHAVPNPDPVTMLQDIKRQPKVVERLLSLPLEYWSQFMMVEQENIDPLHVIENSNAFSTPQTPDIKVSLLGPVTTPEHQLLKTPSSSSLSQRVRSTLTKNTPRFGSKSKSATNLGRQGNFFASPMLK

[16] = cytotoxicity in HEK-293T cells, dose response, cytotoxicity control for BCR NF-kB inhibitor project, luminescence, B-cell screen hits (AID 489021); format: functional, cell-based;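 note: HEK-293T cells carrying an NF-kB luciferase reporter; cells exposed to compound for about 14 hours before viability readout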
[17] = molecular target: T8, Heat shock factor protein 1 (Mus musculus, UniProt P38532); test: HSF1 potentiators in luciferase reporter cells, confirmation, cell-based, NIH3T3, luminescence, dose retest (AID 435004); format: functional;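 note: stress induced by proteasome inhibitor MG132 added 30 min after compound; luciferase reporter driven by HSF1 response element in NIH3T3 cells; actives raise luminescence as potentiators of the MG132 stress response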
T8 sequence (P38532 whole entry): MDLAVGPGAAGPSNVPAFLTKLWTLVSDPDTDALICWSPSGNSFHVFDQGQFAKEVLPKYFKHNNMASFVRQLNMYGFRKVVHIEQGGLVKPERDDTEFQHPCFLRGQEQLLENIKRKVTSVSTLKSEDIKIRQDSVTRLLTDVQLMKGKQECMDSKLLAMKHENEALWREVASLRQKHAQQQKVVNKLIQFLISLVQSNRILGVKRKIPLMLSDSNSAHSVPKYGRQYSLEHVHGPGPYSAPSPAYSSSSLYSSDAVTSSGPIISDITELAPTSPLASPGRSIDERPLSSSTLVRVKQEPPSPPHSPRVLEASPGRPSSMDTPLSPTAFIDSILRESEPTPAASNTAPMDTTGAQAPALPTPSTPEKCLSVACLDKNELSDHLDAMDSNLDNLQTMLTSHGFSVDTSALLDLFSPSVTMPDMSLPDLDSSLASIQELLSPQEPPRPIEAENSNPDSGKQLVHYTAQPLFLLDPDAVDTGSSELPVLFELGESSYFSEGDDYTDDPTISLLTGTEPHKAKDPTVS

[18] = Luminescence Cell-Based Dose Retest to Confirm Inhibitors of Cancer Stem Cells. [Related pubchem assays (depositor defined):AID2717, AID2721]; format: functional; settings: Homo sapiens
[19] = HepG2 cell cytotoxicity, dose response, cytotoxicity control for Shn3 inhibitor project, CellTiter-Glo, cherry-picked (AID 624134); format: functional, cell-based
[20] = Shn3 3'UTR reporter inhibitors, dose response, cell-based, Clone20 osteoblasts, firefly luciferase, cherry-picked (AID 624132); format: functional;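 note: firefly luciferase luminescence from reporter carrying the Shn3 3'UTR in osteoblasts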
Protein Wnt-3a = Protein Wnt-3a (Mus musculus, UniProt P27467); test: Wnt3a-driven reporter signaling inhibition, dose response, selectivity assay for Gli-SUFU antagonist project, Wnt-LIGHT cells, luminescence (AID 651570); format: functional; settings: read-out: IC50_Mean;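 note: Wnt-LIGHT reporter cells stimulated with conditioned medium from Wnt3a-producing cells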
[21] = control 3'UTR Renilla luciferase suppression, dose response, counter-screen for Shn3 inhibitor project, cell-based, Clone20-Shn3RL, cherry-picked (AID 624133); format: functional

T1 sequence (Q9UBE0 whole entry): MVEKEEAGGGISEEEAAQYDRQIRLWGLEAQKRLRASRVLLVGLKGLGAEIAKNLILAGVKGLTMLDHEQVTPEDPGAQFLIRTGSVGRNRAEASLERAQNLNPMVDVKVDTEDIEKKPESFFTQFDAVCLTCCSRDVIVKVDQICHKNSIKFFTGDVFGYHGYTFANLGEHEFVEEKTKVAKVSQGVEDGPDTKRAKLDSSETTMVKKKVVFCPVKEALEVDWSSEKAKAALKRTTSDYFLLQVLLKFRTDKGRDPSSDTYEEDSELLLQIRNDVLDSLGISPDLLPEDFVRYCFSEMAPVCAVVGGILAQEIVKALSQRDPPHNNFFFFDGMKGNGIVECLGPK
T1 sequence (Q9UBT2 whole entry): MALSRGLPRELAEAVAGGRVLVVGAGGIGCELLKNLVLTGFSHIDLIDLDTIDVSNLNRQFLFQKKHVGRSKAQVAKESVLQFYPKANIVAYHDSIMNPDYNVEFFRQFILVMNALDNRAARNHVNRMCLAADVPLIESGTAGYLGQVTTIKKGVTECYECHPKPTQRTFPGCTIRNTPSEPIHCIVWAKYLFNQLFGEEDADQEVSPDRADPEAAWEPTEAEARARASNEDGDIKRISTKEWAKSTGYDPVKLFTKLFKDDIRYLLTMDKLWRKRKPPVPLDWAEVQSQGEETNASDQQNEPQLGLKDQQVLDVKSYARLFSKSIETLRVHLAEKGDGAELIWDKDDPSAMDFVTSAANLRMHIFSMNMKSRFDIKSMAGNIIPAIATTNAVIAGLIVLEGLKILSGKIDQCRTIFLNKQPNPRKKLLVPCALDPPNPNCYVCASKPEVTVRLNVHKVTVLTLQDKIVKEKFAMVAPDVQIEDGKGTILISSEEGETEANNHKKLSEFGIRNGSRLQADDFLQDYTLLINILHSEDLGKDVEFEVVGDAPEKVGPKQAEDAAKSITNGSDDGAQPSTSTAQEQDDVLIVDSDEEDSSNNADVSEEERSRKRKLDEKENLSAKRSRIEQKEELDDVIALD
Eukaryotic translation initiation factor 4E, sequence (P63073 whole entry): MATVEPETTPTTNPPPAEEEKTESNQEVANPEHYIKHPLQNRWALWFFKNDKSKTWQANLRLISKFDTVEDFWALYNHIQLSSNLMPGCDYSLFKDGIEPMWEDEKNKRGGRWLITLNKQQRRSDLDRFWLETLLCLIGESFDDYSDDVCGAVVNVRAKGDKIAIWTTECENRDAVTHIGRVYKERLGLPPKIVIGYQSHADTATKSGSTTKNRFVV
Induced myeloid leukemia cell differentiation protein Mcl-1, sequence (Q07820 whole entry): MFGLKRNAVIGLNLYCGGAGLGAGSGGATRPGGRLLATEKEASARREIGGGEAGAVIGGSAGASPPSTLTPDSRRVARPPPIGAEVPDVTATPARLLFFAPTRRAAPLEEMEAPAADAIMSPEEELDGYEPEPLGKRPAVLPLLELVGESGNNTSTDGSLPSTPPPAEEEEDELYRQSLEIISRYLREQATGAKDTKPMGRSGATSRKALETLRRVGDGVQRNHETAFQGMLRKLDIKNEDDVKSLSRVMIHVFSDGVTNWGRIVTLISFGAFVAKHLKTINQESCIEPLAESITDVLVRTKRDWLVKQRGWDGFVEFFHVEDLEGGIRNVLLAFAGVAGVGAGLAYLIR
Genome polyprotein, sequence (P29990 2492-3391 limits assumed): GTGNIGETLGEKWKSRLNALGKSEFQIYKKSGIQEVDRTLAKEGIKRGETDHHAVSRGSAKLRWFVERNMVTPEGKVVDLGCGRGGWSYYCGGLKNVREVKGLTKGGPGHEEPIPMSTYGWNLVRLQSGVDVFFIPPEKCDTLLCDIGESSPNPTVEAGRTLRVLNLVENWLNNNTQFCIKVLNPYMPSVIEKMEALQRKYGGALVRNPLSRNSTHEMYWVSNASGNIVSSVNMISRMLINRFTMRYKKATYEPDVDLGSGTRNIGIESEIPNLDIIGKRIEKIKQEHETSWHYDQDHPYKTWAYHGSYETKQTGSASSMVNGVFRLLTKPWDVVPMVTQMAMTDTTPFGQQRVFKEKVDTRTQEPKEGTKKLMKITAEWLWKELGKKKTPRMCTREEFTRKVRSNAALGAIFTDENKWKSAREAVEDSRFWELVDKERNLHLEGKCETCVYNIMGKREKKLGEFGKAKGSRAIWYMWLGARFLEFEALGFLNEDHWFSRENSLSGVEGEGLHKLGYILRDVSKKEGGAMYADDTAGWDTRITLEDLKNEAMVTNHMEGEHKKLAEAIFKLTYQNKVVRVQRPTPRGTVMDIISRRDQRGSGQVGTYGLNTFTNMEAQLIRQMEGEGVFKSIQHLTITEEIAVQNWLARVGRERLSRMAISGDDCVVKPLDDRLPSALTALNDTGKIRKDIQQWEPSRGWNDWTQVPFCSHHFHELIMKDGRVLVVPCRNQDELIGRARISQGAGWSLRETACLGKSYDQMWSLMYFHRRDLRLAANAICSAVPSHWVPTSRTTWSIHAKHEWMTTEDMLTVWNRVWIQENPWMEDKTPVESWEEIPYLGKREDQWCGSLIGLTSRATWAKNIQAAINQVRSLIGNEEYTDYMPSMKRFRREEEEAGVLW
Protein Wnt-3a, sequence (P27467 whole entry): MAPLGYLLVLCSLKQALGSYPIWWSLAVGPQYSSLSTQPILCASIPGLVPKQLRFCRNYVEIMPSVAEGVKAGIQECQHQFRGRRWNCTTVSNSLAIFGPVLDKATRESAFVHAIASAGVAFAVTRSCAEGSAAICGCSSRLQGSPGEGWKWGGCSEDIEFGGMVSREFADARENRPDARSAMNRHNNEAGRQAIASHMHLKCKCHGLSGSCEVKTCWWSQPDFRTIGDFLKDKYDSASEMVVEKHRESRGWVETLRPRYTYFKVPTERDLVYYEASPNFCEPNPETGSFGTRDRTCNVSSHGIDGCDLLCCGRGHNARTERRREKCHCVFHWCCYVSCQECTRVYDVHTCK

In the case of `CCc1ccc(/C=N/NC(=O)c2cc(-c3ccncc3)nc3ccccc23)s1`, the IC50 [1] is reported as > 80 µM (inactive).
In the case of `CC1=C(C#N)C(=O)NC(=O)/C1=C\c1ccc(-c2cc(C)c(C)cc2[N+](=O)[O-])o1`, the IC50 (SUMO-activating enzyme [2]) is reported as 5.31 µM (active), the IC50 (Genome polyprotein) is reported as 64.9 µM (active) and the IC50 [3] is reported as 2.87 µM (active). The IC50 (SUMO-activating enzyme [4]) was 39.7 µM (active), the EC50 [5] was > 300 µM (not active) and the IC50 [6] was 40.4 µM (inactive). For the same compound, the EC50 [7] was > 300 µM (not active).
For `O=C(COc1ccc(C(=O)c2ccccc2)cc1)NCc1ccc(F)cc1`, the IC50 [1] was > 80 µM (inactive), the IC50 [8] was > 50 µM (not active) and the EC50 [9] was 10 µM (active). For the same compound, the EC50 [10] was > 120 µM (not active) and the EC50 [11] was 7.25 µM (active).
With `Cc1ccc(CNC(=O)c2ccc(N3CCc4ccccc43)c([N+](=O)[O-])c2)cc1` the IC50 [6] was > 64 µM (inactive).
With `Cc1ccc(-c2cc(-c3ccc(C)cc3)[n+](C)o2)cc1.[O-][Cl+3]([O-])([O-])[O-]` the AC50 [12] was 8.24 µM (active), the EC50 [13] was > 38 µM (not active) and the EC50 [14] was > 160 µM (inactive).
In the case of `Cc1cccc(Nc2nnc(S)s2)c1C`, the IC50 (Leucine aminopeptidase) is reported as 9.62 µM (active), the IC50 [6] is reported as > 64 µM (inactive) and the IC50 [15] is reported as 67.2 µM (active).
With `Cc1ccc(O)c(NC(=O)COc2cc(C)ccc2C)c1` the IC50 [16] was > 80 µM (inactive) and the EC50 [17] was > 260 µM (inactive).
For `O=C1OC(c2cccs2)=N/C1=C/c1ccc(-c2cccc(C(=O)O)c2)o1`, the IC50 [3] was 1.53 µM (not active) and the IC50 [6] was 32.7 µM (inactive).
With `CCOC(=O)c1c(CSc2ccccc2)n(C)c2cc(Br)c(OCC(O)CNC(CO)(CO)CO)cc12` (configuration not stated) the IC50 (SUMO-activating enzyme [2]) was 2.75 µM (active), the AC50 [18] was 1.46 µM (active) and the IC50 (SUMO-activating enzyme [4]) was 17.9 µM (active).
For `CC1CN(S(=O)(=O)c2ccc(C(=O)Nc3nc(-c4cc5ccccc5o4)cs3)cc2)CC(C)O1` (configuration not stated), the AC50 [19] was 1.02 µM (active), the AC50 [20] was < 0.26 µM (active) and the IC50 (Protein Wnt-3a) was 1.28 µM (active). The IC50 [16] was > 80 µM (inactive) and the AC50 [21] was 2.04 µM (active).
